Values after ≈ are worked out from the molar mass of the structure shown. Read-outs that look alike come from different tables or passages of the source.
Columns and labels:
K. pneumoniae A15130 = experiment: Antibiotic activity in nutrient broth (MIC); type: cell-based; details: derivatives adjusted for BL-S640 content
From the text: (§1) Antibiotic Activity In Nutrient Broth
(§2) ** Dilution of overnight broth culture.
(§3) Antibiotic Spectrum Nutrient Broth
(§4) Antibiotic Spectrum in Nutrient Broth

Ent. cloacae A9656 = experiment: Antibiotic activity in nutrient broth (MIC); type: cell-based; details: Enterobacter cloacae, derivatives adjusted for BL-S640 content
From the text: as §1, §2, §3, §4

E. coli Juhl A15119 = experiment: Antibiotic activity in nutrient broth (MIC); type: cell-based; details: derivatives adjusted for BL-S640 content
From the text: as §1, §2, §3, §4

Ser. marcescens A20019 = experiment: Antibiotic activity in nutrient broth (MIC); type: cell-based; details: derivatives adjusted for BL-S640 content
From the text: as §1, §2, §3, §4

Sal. enteritidis A9531 = experiment: Antibiotic activity in nutrient broth (MIC); type: cell-based; details: inoculum 10^-4, derivatives adjusted for BL-S640 content
From the text: as §1, §2, §3, §4

[1] = IR-NMR: cyclic / non cyclic derivative in solution; type: physicochemical; details: 70 mg/ml
[2] = Detection in urine (with mouse blood levels); type: in vivo; details: no evidence of the derivative
bacterial spectrum = experiment: Antibacterial activity / MIC bacterial spectrum compared with parent; type: cell-based; details: in words
From the text: |Antibiotic Activity In Nutrient Broth

[3] = test system: S. aureus Meth-Res A15097; experiment: Antibiotic activity in nutrient broth (MIC); type: cell-based; details: inoculum 10^-3, Meth-Res, derivatives adjusted for BL-S640 content
From the text: as §1, §2, §3, §4

Water solubility = type: physicochemical; details: for solubility: read-out: Solubility in water
[4] = Stability of aqueous solutions; type: physicochemical
Stability of solids = type: physicochemical; details: solid; 1 month at 56° C.; read-out: Stability of Solids (loss)
Rat blood levels = type: in vivo; details: in words
[5] = Klebsiella pneumoniae, A15130, inoculum 10^-4, read-out: MIC
[6] = Escherichia coli, JUHLA15119, inoculum 10^-4, read-out: MIC
[7] = Serratia marcescens, A20019, inoculum 10^-4
[8] = Salmonella enterica, ENTERITIDIS, read-out: MIC
[9] = Staphylococcus aureus, read-out: MIC

Description for physchem: Paper strip bioautographs were run in the following manner. Samples were dissolved at a concentration of 500 γ/ml. in 0.1M pH 7 phosphate buffer and pH 7 pooled human serum at 500 γ/ml. A 10 μl sample of BL-S640 and the above product were spotted on a 1/2 inch strip of What. No. 1 paper and developed at 27° for 16 hours in a butyl acetate 80, n-butanol 15, acetic acid 40, and water 24 system. The strips were air-dried, and placed on an agar plate seeded with B. subtilis A.T.C.C.
Samples were chromatographed on a μ Bondapak C18 (Waters Associates) column using a 0.01M sodium acetate pH 4/-methanol 8/2 mobile phase at a flow rate of 0.52 ml./min. Detection was by UV at 354 μm. Samples were dissolved at a concentration of 1 mg./ml. in the mobile phase, 2 μ were injected and BL-S640 was eluted at 18 min. and the aldehyde at 6 min. The quantitation of BL-S640 and 5-formylfuransulfonic acid were made using p-toluene-sulfonic acid as an internal standard.

N[C@@H](C(=O)N[C@@H]1C(=O)N2C(C(=O)O)=C(CSc3cnn[nH]3)CS[C@H]12)c1ccc(O)cc1 [BL-S640, 7-[D-α-amino-α-(p-hydroxyphenyl)acetamido]-3-(1,2,3-triazol-5-ylthiomethyl)-3-cephem-4-carboxylic acid, reference compound]
MIC (K. pneumoniae A15130; [5]): 2 µg/mL (≈ 4.32 µM) | MIC (K. pneumoniae A15130; inoculum 10^-4): 1 µg/mL (≈ 2.16 µM) | MIC (Ent. cloacae A9656; A9656, inoculum 10^-4): > 125 µg/mL | MIC (Ent. cloacae A9656; A9656, inoculum 10^-4, read-out: MIC): 63 µg/mL (≈ 136 µM) | MIC (E. coli Juhl A15119; [6]): 1 µg/mL (≈ 2.16 µM) | MIC (E. coli Juhl A15119; inoculum 10^-4): 0.5 µg/mL (≈ 1.08 µM) | MIC (Ser. marcescens A20019; [7]): > 125 µg/mL | MIC (Ser. marcescens A20019; Serratia marcescens, A20019, inoculum 10^-4, read-out: MIC): 63 µg/mL (≈ 136 µM) | MIC (Sal. enteritidis A9531; [8]): 0.25 µg/mL (≈ 0.541 µM) | MIC (Sal. enteritidis A9531): 0.13 µg/mL (≈ 0.281 µM)

O=C(O)C1=C(CSc2cnn[nH]2)CS[C@@H]2[C@H](N3C(=O)[C@@H](c4ccc(O)cc4)NC3c3ccc(S(=O)(=O)O)o3)C(=O)N12 (stereo partly drawn) [BL-S1027]
non cyclic derivative in solution [1]: 20% | Form appearing in urine [2]: BL-S640 appeared in urine with no evidence | MIC bacterial spectrum / activity compared with parent (bacterial spectrum): equal to that of BL-S640 | MIC (K. pneumoniae A15130; [5]): 1 µg/mL (≈ 1.61 µM) | MIC (Ent. cloacae A9656; A9656, inoculum 10^-4): > 125 µg/mL | MIC (E. coli Juhl A15119; [6]): 1 µg/mL (≈ 1.61 µM) | MIC [3, 9]: 4 to 8 µg/mL (≈ 6.44 to 12.9 µM) | MIC [3]: 4 µg/mL (≈ 6.44 µM) | MIC (Ser. marcescens A20019; [7]): > 125 µg/mL | MIC (Ser. marcescens A20019; inoculum 10^-4): 125 µg/mL (≈ 201 µM) | MIC (Sal. enteritidis A9531; [8]): 0.25 µg/mL (≈ 0.403 µM) | Solubility in water (Water solubility): > 400 mg/mL | solubility (Water solubility): > 500 mg/mL | Storage of aqueous solutions, loss in activity ([4]; 250, 25 and 10 mg. BL-S640 activity/ml., 4° C. or room temperature, at least 24 hours): no significant loss in activity | Stability of solution in water: stable (retained full bioactivity) ([4]; 25,000 mcg./ml., 6° C. (refrigerator)): 14 days | Stability of solution in water ([4]; 25,000 mcg./ml., room temperature, for at least three days): stable (retained full bioactivity) for at least three days | degraded at 24 h ([4]; water, 250, 25 and 10 mg./ml. of BL-S640 activity, at least 24 hours at room temperature, read-out: Stability of solutions (loss)): < 10% | degraded (Stability of solids): < 10% | Intramuscular rat blood levels compared with BL-S640 (Rat blood levels; intramuscular): equal to that of BL-S640 | Oral rat blood levels compared with BL-S640 (Rat blood levels; oral): equal to that of BL-S640

O=C(O)COc1ccccc1C1N[C@H](c2ccc(O)cc2)C(=O)N1[C@@H]1C(=O)N2C(C(=O)O)=C(CSc3cnn[nH]3)CS[C@H]12 (stereo partly drawn) [BL-S1048]
MIC (K. pneumoniae A15130; [5]): 1 µg/mL (≈ 1.6 µM) | MIC (Ent. cloacae A9656; A9656, inoculum 10^-4): > 125 µg/mL | MIC (E. coli Juhl A15119; [6]): 0.5 µg/mL (≈ 0.8 µM) | MIC [3, 9]: 4 µg/mL (≈ 6.4 µM) | MIC (Ser. marcescens A20019; [7]): > 125 µg/mL | MIC (Sal. enteritidis A9531; [8]): 0.13 µg/mL (≈ 0.208 µM)

O=C(O)C1=C(CSc2cnn[nH]2)CS[C@@H]2[C@H](N3C(=O)[C@@H](c4ccc(O)cc4)NC3c3ccccc3S(=O)(=O)O)C(=O)N12 (stereo partly drawn) [BL-S1055]
degraded at 1 h (physchem): 70.5% | degraded at 2 h (physchem): 88% | MIC (K. pneumoniae A15130; [5]): 1 µg/mL (≈ 1.59 µM) | MIC (Ent. cloacae A9656; A9656, inoculum 10^-4): 125 µg/mL (≈ 198 µM) | MIC (E. coli Juhl A15119; [6]): 1 µg/mL (≈ 1.59 µM) | MIC [3, 9]: 4 µg/mL (≈ 6.34 µM) | MIC (Ser. marcescens A20019; [7]): 125 µg/mL (≈ 198 µM) | MIC (Sal. enteritidis A9531; [8]): 0.35 µg/mL (≈ 0.555 µM) | solubility (Water solubility): > 400 mg/mL

From patent US4026888A, “Certain derivatives of particular 3-thiolated cephalosporins” (priority 1976, dated 1977)
